Experimental data reported in patent US8987195B2 (priority 2012, dated 2015).
Where two headings read alike, the source gives them in different places.

What was measured:
[1] = biological target: HCV NS3/4A protease genotype 3a (Hepatitis C virus genotype 3a, UniProt Q81495); experiment: HCV NS3/4A protease time-resolved fluorescence (TRF) assay, Ki against genotype 3a; assay type: biochemical
Experimental: (§1) Measuring NS3/4A Inhibitory Activity (Ki) Against Genotype 1b, Against A156T Mutants and Against Genotype 3a
(§2) One assay for measuring inhibitory activity is HCV NS3 protease time-resolved fluorescence (TRF) assay as described below and in Mao et al., Anal. Biochem. 373:1-8, 2008 and International Patent Application Publication WO 2006/102087. A NS3 protease assay can be performed, for example, in a final volume of 20 μl assay buffer containing 50 mM HEPES, pH 7.5, 150 mM NaCl, 15% glycerol, 0.15% TRITON X-100, 10 mM DTT, and 0.1% PEG 8000. NS3 and NS4A protease is pre-incubated with various concentrations of inhibitors in DMSO for 30 min. The reaction is initiated by adding the TRF peptide substrate (final concentration 25 nM). NS3 mediated hydrolysis of the substrate was run for 2.5 hours at room temperature. Product fluorescence is detected using A Pherastar Plus plate reader (BMG) or Envision (Perkin Elmer Life and Analytical Sciences with excitation at 340 nm and emission at 615 nm using the appropriate delay time optimized for the europium fluorescence probe. Testing concentrations of different enzyme forms are selected to result in a signal to background ratio (S/B) of 10-30. IC50 values are derived using a standard four-parameter fit to the data. Ki values are derived from IC50 values using the following formula, IC50=Ki(1+[S]/KM), Eqn (1), where [S] is the concentration of substrate peptide in the reaction and KM is the Michaelis constant. See P. Gallinari et al., 38 BIOCHEM. 5620-32 (1999); P. Gallinari et al., 72 J. VIROL. 6758-69 (1998); M. Taliani et al., 240 ANAL. BIOCHEM. 60-67 (1996); Mao et al., Analytical Biochemistry 373: 1-8, 2008.
(§3) The assay described above was run against genotype 1b at a concentration of 0.2 nM, against A156T mutant strains at a concentration of 0.4 nM, and against genotype 3a at a concentration of 0.025 nM.

[2] = biological target: HCV NS3/4A protease A156T mutant (Hepatitis C virus genotype 1b, UniProt P26663, A1182T); experiment: HCV NS3/4A protease time-resolved fluorescence (TRF) assay, Ki against A156T mutant; assay type: biochemical; conditions: NS3/4A protease TRF assay, A156T mutant enzyme 0.4 nM, read-out: IC50 [gt-1b A156T]
Experimental: as §1, §2, §3

[3] = biological target: HCV NS3/4A protease genotype 1b (Hepatitis C virus genotype 1b, UniProt P26663); experiment: HCV NS3/4A protease time-resolved fluorescence (TRF) assay, Ki against genotype 1b; assay type: biochemical; conditions: IC50 [gt-1b], NS3/4A protease TRF assay, genotype 1b enzyme 0.2 nM
Summary of the method: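 Ki values come from IC50 fits corrected for substrate concentration and KM. The time-resolved fluorescence protease reaction used 25 nM peptide substrate, 2.5 h, room temperature, pH 7.5 HEPES buffer, after 30 min enzyme–inhibitor preincubation.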

HCV genotype 1b replicon = experiment: HCV replicon assay, genotype 1b replicon EC50; assay type: cell-based, Hepatitis C virus; conditions: Hepatitis C virus, HCV replicon, genotype 1b, read-out: EC50 [gt-1b]
Summary of the method: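 Readout was replicon RNA copy number, by 32P-probe protection or TaqMan normalized to cellular cyclophilin A RNA, or luciferase activity for luciferase:Neo^r fusion lines. Cells were exposed to serially diluted compound for 24-48 hours without G418, then washed and lysed. EC50 derived from four-parameter fit relative to DMSO.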

SMILES	IC50 [1] [nM]	IC50 [2] [nM]	IC50 [3] [nM]	EC50 (HCV genotype 1b replicon) [nM]	IC50 ([2]; K+ salt) [nM]	IC50 ([3]; K+ salt) [nM]	EC50 (HCV genotype 1b replicon; K+ salt) [nM]
COc1ccc2nc(C)c3c(c2n1)CC[C@]1(C[C@H]2C(=O)N[C@]4(C(=O)NS(=O)(=O)C5(C)CC5)C[C@H]4/C=C\CCCCC[C@H](NC(=O)OCC(C)(C)C)C(=O)N2C1)O3 [Example 361, 2,2-dimethylpropyl [(2R,6S,12Z,13aS,14aR,16aS)-2′-methoxy-6′-methyl-14a-{[(1-methylcyclopropyl)sulfonyl]carbamoyl}-5,16-dioxo-1,5,6,7,8,9,9′,10,10′,11,13a,14,14a,15,16,16a-hexadecahydrospiro[cyclopropa[e]pyrrolo[1,2-a][1,4]diazacyclopentadecine-2,8′-pyrano[2,3-c][1,5]naphthyridin]-6-yl]carbamate]	0.433	0.241	0.012	4.43			
CC(C)(C)COC(=O)N[C@H]1CCCCC/C=C\[C@@H]2C[C@@]2(C(=O)NS(=O)(=O)C2(C)CC2)NC(=O)[C@@H]2C[C@]3(CCc4c(c(C(F)F)nc5ccc(Cl)cc45)O3)CN2C1=O [Example 369, 2,2-dimethylpropyl [(2R,6S,12Z,13aS,14aR,16aS)-9′-chloro-5′-(difluoromethyl)-14a-{[(1-methylcyclopropyl)sulfonyl]carbamoyl}-5,16-dioxo-1,1′,2′,5,6,7,8,9,10,11,13a,14,14a,15,16,16a-hexadecahydrospiro[cyclopropa[e]pyrrolo[1,2-a][1,4]diazacyclopentadecine-2,3′-pyrano[2,3-c]quinolin]-6-yl]carbamate]	1.18	1.16	0.018	15.1			
COc1ccc2nc(C)c3c(c2c1)[C@H](F)C[C@]1(C[C@H]2C(=O)N[C@]4(C(=O)NS(=O)(=O)C5(C)CC5)C[C@H]4/C=C\CCCCC[C@H](NC(=O)OCC(C)(C)F)C(=O)N2C1)O3 [Example 370, 2-fluoro-2-methylpropyl [(1′R,2S,6S,12Z,13aS,14aR,16aS)-1′-fluoro-9′-methoxy-5′-methyl-14a-{[(1-methylcyclopropyl)sulfonyl]carbamoyl}-5,16-dioxo-1,1′,2′,5,6,7,8,9,10,11,13a,14,14a,15,16,16a-hexadecahydrospiro[cyclopropa[e]pyrrolo[1,2-a][1,4]diazacyclopentadecine-2,3′-pyrano[2,3-c]quinolin]-6-yl]carbamate]	0.149				0.037	0.009	8.56
COc1ccc2nc(C(F)(F)F)c3c(c2c1)CC[C@]1(C[C@H]2C(=O)N[C@]4(C(=O)NS(=O)(=O)C5(C)CC5)C[C@H]4/C=C\CCCCC[C@H](NC(=O)OCC(C)(C)C)C(=O)N2C1)O3 [Example 382, 2,2-dimethylpropyl [(2R,6S,12Z,13aS,14aR,16aS)-9′-methoxy-14a-{[(1-methylcyclopropyl)sulfonyl]carbamoyl}-5,16-dioxo-5′-(trifluoromethyl)-1,1′,2′,5,6,7,8,9,10,11,13a,14,14a,15,16,16a-hexadecahydrospiro[cyclopropa[e]pyrrolo[1,2-a][1,4]diazacyclopentadecine-2,3′-pyrano[2,3-c]quinolin]-6-yl]carbamate]	1.09				2.34	0.028	3.61
COc1ccc2nc(C(F)(F)F)c3c(c2c1)CC[C@]1(C[C@H]2C(=O)N[C@]4(C(=O)NS(=O)(=O)C5(C)CC5)C[C@H]4/C=C\CCCCC[C@H](NC(=O)OC4(C)CCC4)C(=O)N2C1)O3 [Example 451, 1-methylcyclobutyl [(2R,6S,12Z,13aS,14aR,16aS)-9′-methoxy-14a-{[(1-methylcyclopropyl)sulfonyl]carbamoyl}-5,16-dioxo-5′-(trifluoromethyl)-1,1′,2′,5,6,7,8,9,10,11,13a,14,14a,15,16,16a-hexadecahydrospiro[cyclopropa[e]pyrrolo[1,2-a][1,4]diazacyclopentadecine-2,3′-pyrano[2,3-c]quinolin]-6-yl]carbamate]	0.504	0.338	0.006	1.86			
CC[C@@H](C)OC(=O)N[C@H]1CCCCC/C=C\[C@@H]2C[C@@]2(C(=O)NS(=O)(=O)C2(C)CC2)NC(=O)[C@@H]2C[C@]3(CCc4c(c(C(F)(F)F)nc5ccc(OC)cc45)O3)CN2C1=O [Example 459, (2R)-butan-2-yl [(2R,6S,12Z,13aS,14aR,16aS)-9′-methoxy-14a-{[(1-methylcyclopropyl)sulfonyl]carbamoyl}-5,16-dioxo-5′-(trifluoromethyl)-1,1′,2′,5,6,7,8,9,10,11,13a,14,14a,15,16,16a-hexadecahydrospiro[cyclopropa[e]pyrrolo[1,2-a][1,4]diazacyclopentadecine-2,3′-pyrano[2,3-c]quinolin]-6-yl]carbamate]	2.31				2.65	0.049	4.4
CC[C@H](C)OC(=O)N[C@H]1CCCCC/C=C\[C@@H]2C[C@@]2(C(=O)NS(=O)(=O)C2(C)CC2)NC(=O)[C@@H]2C[C@]3(CCc4c(c(C(F)(F)F)nc5ccc(OC)cc45)O3)CN2C1=O [Example 460, (2S)-butan-2-yl [(2R,6S,12Z,13aS,14aR,16aS)-9′-methoxy-14a-{[(1-methylcyclopropyl)sulfonyl]carbamoyl}-5,16-dioxo-5′-(trifluoromethyl)-1,1′,2′,5,6,7,8,9,10,11,13a,14,14a,15,16,16a-hexadecahydrospiro[cyclopropa[e]pyrrolo[1,2-a][1,4]diazacyclopentadecine-2,3′-pyrano[2,3-c]quinolin]-6-yl]carbamate]	1.78				2.74	0.034	2.99
COc1ccc2nc(C(F)(F)F)c3c(c2c1)[C@H](F)C[C@]1(C[C@H]2C(=O)N[C@]4(C(=O)NS(=O)(=O)C5(C)CC5)C[C@H]4/C=C\CCCCC[C@H](NC(=O)OCC(C)C)C(=O)N2C1)O3 [Example 461, 2-methylpropyl [(1′R,2S,6S,12Z,13aS,14aR,16aS)-1′-fluoro-9′-methoxy-14a-{[(1-methylcyclopropyl)sulfonyl]carbamoyl}-5,16-dioxo-5′-(trifluoromethyl)-1,1′,2′,5,6,7,8,9,10,11,13a,14,14a,15,16,16a-hexadecahydrospiro[cyclopropa[e]pyrrolo[1,2-a][1,4]diazacyclopentadecine-2,3′-pyrano[2,3-c]quinolin]-6-yl]carbamate]	0.624	0.435	0.029	3.29			
COc1ccc2nc(C(F)(F)F)c3c(c2c1)CC[C@]1(C[C@H]2C(=O)N[C@]4(C(=O)NS(=O)(=O)C5(C)CC5)C[C@H]4/C=C\CCCCC[C@H](NC(=O)OC4CCOC4)C(=O)N2C1)O3 (stereo partly drawn) [Example 481, tetrahydrofuran-3-yl [(2R,6S,12Z,13aS,14aR,16aS)-9′-methoxy-14a-{[(1-methylcyclopropyl)sulfonyl]carbamoyl}-5,16-dioxo-5′-(trifluoromethyl)-1,1′,2′,5,6,7,8,9,10,11,13a,14,14a,15,16,16a-hexadecahydrospiro[cyclopropa[e]pyrrolo[1,2-a][1,4]diazacyclopentadecine-2,3′-pyrano[2,3-c]quinolin]-6-yl]carbamate]	0.225				0.436	0.006	1.31
